In ChEMBL document CHEMBL5375981, “Enhanced Tumor Targeting and Penetration of Proteolysis-Targeting Chimeras through iRGD Peptide Conjugation: A Strategy for Precise Protein Degradation in Breast Cancer” (J Med Chem, 2023):
The source made the active and inactive calls. No cut-off for these calls is given here.

Assays:
[1] = molecular target: Bromodomain-containing protein 4 (Homo sapiens) (UniProt O60885); assay: Induction of BRD4 degradation in human MDA-MB-231 cells harboring high integrin alphaVbeta3 expression at 0.1 to 1 uM incubated for 24 hrs by Western blot analysis; type: cell-based; details: dose 0.1-1 µM
[2] = molecular target: Bromodomain-containing protein 4 (Homo sapiens) (UniProt O60885); assay: Induction of BRD4 degradation in human MDA-MB-231 cells harboring high integrin alphaVbeta3 expression assessed as reduction in BRD4 levels at 500 nM incubated for 12 hrs by immunofluorescence staining based confocal microscopic analysis; type: cell-based
[3] = Toxicity in BALB/C mouse xenografted with human MDA-MB-231 cells assessed as spleen damage at 5 to 8 uM, iv administered every other day for 21 days and measured 37 days post treatment by H and E staining based assay; type: organism-based; details: in vivo, 1392 h, dose 5-8 µM, time 58 day
Mus musculus = assay: In vivo induction of BRD4 degradation in BALB/C mouse xenografted with human MDA-MB-231 cells assessed as reduction in BRD4 level in tumor at 5 to 8 uM, iv administered every other day and measured after 21 days by immunohistochemistry analysis; type: functional, organism-based; details: dose 5-8 µM, time 21.0 day
MDA-MB-231 [4] = assay: Antimigratory activity against human MDA-MB-231 cells harboring high integrin alphaVbeta3 expression assessed as inhibition of cell migration incubated for 48 hrs by crystal violet staining based transwell assay; type: functional; details: dose 200-300 nM
MDA-MB-231 [5] = assay: Antitumor activity against human MDA-MB-231 cells xenografted in BALB/C nude mouse assessed as appearance of collapsed extravascular tumor tissue at 5 uM, iv administered every other day and measured after 21 days by H and E staining based assay; type: functional, organism-based; details: time 21.0 day
[6] = Toxicity in BALB/C mouse xenografted with human MDA-MB-231 cells assessed as effect on spleen weight at 5 to 8 uM, iv administered every other day for 21 days; type: organism-based; details: in vivo, 504 h, dose 5-8 µM, time 21 day
[7] = molecular target: Bromodomain-containing protein 4 (Homo sapiens) (UniProt O60885); assay: Induction of BRD4 degradation in human MDA-MB-231 cells harboring high integrin alphaVbeta3 expression at 1 uM incubated for 12 hrs by immunofluorescence staining based confocal microscopic analysis; type: cell-based
MDA-MB-231 [8] = assay: Antitumor activity against human MDA-MB-231 cells xenografted in BALB/C nude mouse assessed as disruption of tumor blood vessel wall at 5 uM, iv administered every other day and measured after 21 days by H and E staining based assay; type: functional, organism-based; details: time 21.0 day

## Cc1ncsc1-c1ccc([C@H](C)NC(=O)[C@@H]2C[C@@H](OC(=O)OCCSSCCOC(=O)CCC(=O)NCCCC[C@@H]3NC(=O)[C@H](CC(=O)O)NC(=O)CNC(=O)[C@H](CCCNC(=N)N)NC(=O)[C@@H](N)CSSC[C@@H](C(=O)O)NC(=O)[C@H](CC(=O)O)NC(=O)[C@@H]4CCCN4C(=O)CNC3=O)CN2C(=O)[C@@H](NC(=O)COCCOCCOCCNC(=O)C[C@@H]2N=C(c3ccc(Cl)cc3)c3c(sc(C)c3C)-n3c(C)nnc32)C(C)(C)C)cc1
[1]
  Activity: Active
[2]
  Activity: Active
[3]
  Activity: Non-Toxic
Mus musculus
  Activity: Active
MDA-MB-231 [4]
  Activity: Dose-Dependent Effect
MDA-MB-231 [5]
  Activity: Active
[6]
  Activity: Non-Toxic
[7]
  Activity: Active
MDA-MB-231 [8]
  Activity: Active
